Source: PubChem BioAssay (NCI)
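Values below derive from 48-hour exposures of cells grown in 96-well plates, with endpoints linearly interpolated between the two concentrations bracketing the appropriate inhibition level. The concentration for full growth arrest is given as TGI.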

Assays:
Assay in all cases: NCI-60 cell line screen, 48 h
U251 CNS = test system: U251 CNS
SF-295 CNS = test system: SF-295 CNS
UO-31 renal = test system: UO-31 renal
T-47D breast = test system: T-47D breast
DU-145 prostate = test system: DU-145 prostate
SK-MEL-5 melanoma = test system: SK-MEL-5 melanoma
HCT-116 colon = test system: HCT-116 colon
MDA-N = test system: MDA-N
MCF7 breast = test system: MCF7 breast
M14 melanoma = test system: M14 melanoma
A498 renal = test system: A498 renal
COLO 205 colon = test system: COLO 205 colon
BT-549 breast = test system: BT-549 breast
SK-MEL-2 melanoma = test system: SK-MEL-2 melanoma
RXF 393 renal = test system: RXF 393 renal
SW-620 colon = test system: SW-620 colon
RPMI-8226 leukemia = test system: RPMI-8226 leukemia
IGROV1 ovarian = test system: IGROV1 ovarian
SF-539 CNS = test system: SF-539 CNS

Row | Compound | TGI (U251 CNS) [µM] | TGI (SF-295 CNS) [µM] | TGI (UO-31 renal) [µM] | TGI (T-47D breast) [µM] | TGI (DU-145 prostate) [µM] | TGI (SK-MEL-5 melanoma) [µM] | TGI (HCT-116 colon) [µM] | TGI (MDA-N) [µM] | TGI (MCF7 breast) [µM] | TGI (M14 melanoma) [µM] | TGI (A498 renal) [µM] | TGI (COLO 205 colon) [µM] | TGI (BT-549 breast) [µM] | TGI (SK-MEL-2 melanoma) [µM] | TGI (RXF 393 renal) [µM] | TGI (SW-620 colon) [µM] | TGI (RPMI-8226 leukemia) [µM] | TGI (IGROV1 ovarian) [µM] | TGI (SF-539 CNS) [µM]
1 | Cc1nnc(N)nc1C/C=C/C(C)Sc1ccc(Cl)cc1 (configuration not stated) | > 42 | 11.8 | 19.4 | 42.4 | 38.1 | 22.9 | 33.8 | > 100 | 33.2 | 26 | 25.9 | 49.8 | > 67.2 | 30.6 | 22.2 | > 48 | > 70 | 13.5 | 
2 | O=C(O)c1ccccc1/C=N\N(CCO)C1=NCCN1 | > 100 | > 100 | > 100 | > 100 | > 100 | > 100 | > 100 | > 100 | > 100 | > 100 |  | > 100 | > 100 | > 100 | > 100 | > 100 | > 100 | > 100 | > 100
3 | Clc1ccc2c(c1)CC1C[N+]3=C(CCCCC3)C1=C2 (configuration not stated) | > 100 | > 100 | > 100 | > 100 | > 100 | > 100 | > 100 | > 100 | > 100 | > 100 | > 100 | > 100 | > 100 | 97 | > 100 | > 100 |  | > 100 | 
4 | C/C1=C\CC[C@@]2(C)O[C@@H]2C[C@@H]2[C@H](C/C(C)=C/CC1)OC(=O)[C@]21CO1 | > 100 | > 100 | > 100 | > 100 | > 100 | > 100 | > 100 | > 100 | > 100 | > 100 | > 100 | > 100 | > 100 | > 100 | > 100 | > 100 | > 100 | > 100 | 
5 | Cc1cnc2c(c1)C(=O)N(c1ccc(Br)cc1)S2(=O)=O | > 100 | > 100 | > 100 | > 100 | > 100 | > 100 | > 100 | > 100 | > 100 | > 100 |  | > 100 | > 100 | > 100 |  | > 100 | > 100 | > 100 | > 100
6 | CCOC(=O)c1c(Br)c(-c2ccc([N+](=O)[O-])cc2)c(Br)n1C | > 10 | > 10 | > 10 | > 10 | > 10 | > 10 | > 10 | > 10 | > 10 | > 10 | > 10 | > 10 | > 10 | > 10 |  |  | > 10 | > 10 | > 10
7 | COc1c(-c2ccc(F)cc2)oc2c(CC(=O)O)cccc2c1=O | > 100 | > 100 | 96.6 | > 100 | > 100 | > 100 | > 100 | > 100 | > 100 | > 100 | > 100 | > 100 | > 100 | > 100 | > 100 |  |  | > 100 | > 100
